Laboratory results as given in paper PMC12677653, “Inhibition of Tumor Lipogenesis and Growth by Peptide‐Based Targeting of SREBP Activation” (Advanced Science, 2025).

Molecular target: T1, binding of PCK1 to Insig1 (Homo sapiens, UniProt P35558)
T1 sequence (P35558 1-622): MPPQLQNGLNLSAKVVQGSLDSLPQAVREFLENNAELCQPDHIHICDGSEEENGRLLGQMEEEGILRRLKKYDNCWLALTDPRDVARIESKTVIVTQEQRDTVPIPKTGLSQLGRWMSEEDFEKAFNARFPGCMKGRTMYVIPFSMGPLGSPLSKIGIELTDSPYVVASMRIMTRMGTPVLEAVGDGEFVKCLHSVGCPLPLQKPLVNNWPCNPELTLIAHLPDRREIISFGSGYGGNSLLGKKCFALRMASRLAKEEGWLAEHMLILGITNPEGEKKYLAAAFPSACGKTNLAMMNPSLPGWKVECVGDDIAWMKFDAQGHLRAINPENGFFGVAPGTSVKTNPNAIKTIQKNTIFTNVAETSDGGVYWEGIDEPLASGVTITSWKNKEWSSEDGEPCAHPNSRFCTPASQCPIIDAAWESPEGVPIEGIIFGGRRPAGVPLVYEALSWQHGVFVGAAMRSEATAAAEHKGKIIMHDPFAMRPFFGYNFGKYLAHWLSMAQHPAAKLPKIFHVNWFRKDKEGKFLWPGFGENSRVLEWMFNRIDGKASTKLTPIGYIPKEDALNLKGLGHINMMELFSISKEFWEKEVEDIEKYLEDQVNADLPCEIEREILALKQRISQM
Assay: Immunoprecipitation of IGF1-induced PCK1-Insig1 binding, Huh7
Type: cell-based
Design: expressed in transfected cells; host or cells: Huh7
Details: Flag-PCK1-expressing Huh7 cells, peptide 15 µM 1 h before IGF1 100 ng/mL
Description: Figure 1 The Insig1/2 loop 1 peptide binds to S90‐phosphorylated PCK1 and blocks PCK1‐mediated SREBP activation and tumor cell proliferation. Immunoblotting analyses were performed using the indicated antibodies; representative results from three independent experiments are shown (IP, immunoprecipitation; WB, western blot). a) Huh7 cells expressing various Insig1 (top) or Insig2 (bottom) truncation mutants were treated with or without IGF1 (100 ng mL^−1) for 1 h. b,c) Biolayer interferometry assays (Sartorius Octet) were employed to measure the binding affinity of Insig1/2 loop 1 peptide to GST‐PCK1 or GST‐PCK1 pS90 proteins. […] Statistical significance was determined by one‐way analysis of variance (ANOVA). g) Following pretreatment with Insig1/2 loop 1 peptide (15 µM) and IGF1 stimulation (100 ng mL^−1, 8 h), Huh7 cells were subjected to immunofluorescence analysis (scale bar: 10 µm). h) Quantitative PCR analysis of SREBP1 target gene GPAM in Huh7 cells pretreated with Insig1/2 loop 1 peptide (15 µM) and stimulated with IGF1 (100 ng mL^−1) for 10 h. […] Statistical significance was determined by one‐way analysis of variance (ANOVA). i) Quantitative PCR analysis of SREBP1 target gene FASN in Huh7 cells pretreated with Insig1/2 loop 1 peptide (15 µM) and stimulated with IGF1 (100 ng mL^−1) for 10 h. […]

RKKRRQRRRLYPCIDSHLGEPHKFKRE [Insig1/2 loop 1 peptide]
IGF1-induced binding of PCK1 to Insig1: markedly inhibited
